Patent US20040038861A1, “Methods and compositions for normalizing lipid levels in mammalian tissues” (priority 2001, published 2004)

Tests used:
soleus muscle [1] = test: Individual free fatty acids by gas chromatography in isolated soleus muscle from normally fed rats; type: cell-based, rat; conditions: for Total free fatty acids / free fatty acid C14:0 as percentage of total resting fatty acid / free fatty acid C15:0 as percentage of total resting fatty acid / free fatty acid C16:0 as percentage of total resting fatty acid / free fatty acid C16:1 (n-7) as percentage of total resting fatty acid / free fatty acid C16:1 (n-9) as percentage of total resting fatty acid / free fatty acid C17:0 as percentage of total resting fatty acid / free fatty acid C18:0 as percentage of total resting fatty acid / free fatty acid C18:1 (n-7) as percentage of total resting fatty acid / free fatty acid C18:1 (n-9) as percentage of total resting fatty acid / free fatty acid C18:2 as percentage of total resting fatty acid / free fatty acid C18:3 as percentage of total resting fatty acid / free fatty acid C20:0 as percentage of total resting fatty acid / free fatty acid C20:4 as percentage of total resting fatty acid / free fatty acid C20:5 as percentage of total resting fatty acid / free fatty acid C22:4 as percentage of total resting fatty acid / free fatty acid C22:6 as percentage of total resting fatty acid: 1 hour; for Total free fatty acids / free fatty acid adrenic C22:4 / free fatty acid arachidic C20:0 / free fatty acid arachidonic C20:4 / free fatty acid cervonic C22:6 / free fatty acid linoleic C18:2 / free fatty acid linolenic C18:3 / free fatty acid margaric C17:0 / free fatty acid myristic C14:0 / free fatty acid oleic C18:1 / free fatty acid palmitic C16:0 / free fatty acid palmitoleic (n-7) C16:1 / free fatty acid palmitoleic (n-9) C16:1 / free fatty acid pentadecanoic C15:0 / free fatty acid stearic C18:0 / free fatty acid timnodonic C20:5 / free fatty acid vaccenic C18:1: GC; for Total free fatty acids: hormone concentrations 100 nM for all; for free fatty acid C14:0 as percentage of total resting fatty acid / free fatty acid C15:0 as percentage of total resting fatty acid / free fatty acid C16:0 as percentage of total resting fatty acid / free fatty acid C16:1 (n-7) as percentage of total resting fatty acid / free fatty acid C16:1 (n-9) as percentage of total resting fatty acid / free fatty acid C17:0 as percentage of total resting fatty acid / free fatty acid C18:0 as percentage of total resting fatty acid / free fatty acid C18:1 (n-7) as percentage of total resting fatty acid / free fatty acid C18:1 (n-9) as percentage of total resting fatty acid / free fatty acid C18:2 as percentage of total resting fatty acid / free fatty acid C18:3 as percentage of total resting fatty acid / free fatty acid C20:0 as percentage of total resting fatty acid / free fatty acid C20:4 as percentage of total resting fatty acid / free fatty acid C20:5 as percentage of total resting fatty acid / free fatty acid C22:4 as percentage of total resting fatty acid / free fatty acid C22:6 as percentage of total resting fatty acid / free fatty acid adrenic C22:4 / free fatty acid arachidic C20:0 / free fatty acid arachidonic C20:4 / free fatty acid cervonic C22:6 / free fatty acid linoleic C18:2 / free fatty acid linolenic C18:3 / free fatty acid margaric C17:0 / free fatty acid myristic C14:0 / free fatty acid oleic C18:1 / free fatty acid palmitic C16:0 / free fatty acid palmitoleic (n-7) C16:1 / free fatty acid palmitoleic (n-9) C16:1 / free fatty acid pentadecanoic C15:0 / free fatty acid stearic C18:0 / free fatty acid timnodonic C20:5 / free fatty acid vaccenic C18:1: normally fed rats; for free fatty acid adrenic C22:4 / free fatty acid arachidic C20:0 / free fatty acid arachidonic C20:4 / free fatty acid cervonic C22:6 / free fatty acid linoleic C18:2 / free fatty acid linolenic C18:3 / free fatty acid margaric C17:0 / free fatty acid myristic C14:0 / free fatty acid oleic C18:1 / free fatty acid palmitic C16:0 / free fatty acid palmitoleic (n-7) C16:1 / free fatty acid palmitoleic (n-9) C16:1 / free fatty acid pentadecanoic C15:0 / free fatty acid stearic C18:0 / free fatty acid timnodonic C20:5 / free fatty acid vaccenic C18:1: hormone 1 hour
Protocol: Animal models. Normallyfed rats. All protocols were approved by the University of Auckland Animal Ethics Committee. Male Wistar rats, (age=50 d) weighing 200-250 g, were housed in a constant 12 h/12 h-light/dark cycle and received standard rat-chow (Diet 86, NRM, Auckland) and water ad libitum. The standard diet contained 5% fat (w/w), which comprised mainly beef tallow. The triglyceride, total and free fatty acid contents of representative samples of this diet were analyzed, and are shown in Table 3. Rats were anaesthetized by intraperitoneal injection of sodium pentobarbital (45 mg/kg body weight) then sacrificed by cervical dislocation.
Soleus muscle tissue isolation and incuhation.Immersion and incubation media was Krebs-Henseleit buffer (KHB) containing 118.5 mM NaCl, 4.75 mM KCl, 1.18 mM MgSO4.7H2O and KH2PO4, 24.8 mM NaHCO3, 2.54 mM CaCl2 and 10 mM d-glucose. The medium was gassed continuously with 95% O2/5% CO2. […] Soleus muscles of both legs were excised keeping the tissue immersed in KHB; muscles were separated into two equal parts and transferred to the incubation flasks. At the completion of incubation the muscles were snap frozen in liquid nitrogen, and then trimmed of connective tissue and all visible fat. The muscle strips were stored at −80° C. until analysis.
Lipid extraction and chromatographic separation of fatty acids. Total lipids were extracted from muscle strips by a modified version of the method of Bligh and Dyer (Gorski et al., 1988, Mol & Cell Biochem 178:113-118; 1. Bligh et al., 1959, Can J Biochem Physiol 37: 911-917). Muscles were homogenised (Soniprep 150) in 0.4 ml of deionised water. Solvent volumes used herein were varied according to the water content of the muscle (ie muscle weight) as described (Bligh & Dyer, supra). 2 vols of methanol containing 0.005% butylated hydroxy toluene (BHT) and 1 vol chloroform were added to the muscle suspension. Homogenates were vortexed at maximum speed for 2 minutes and centrifuged at 2,500 g for 4 minutes. Supernatants were recovered and pellets re-extracted with 2 vol methanol, 1 vol chloroform and 0.8 vol 0.2 N HCl. Residues were vortexed for 2 min then centrifuged at 3,500 g for 3 min. After centrifugation the combined supernatants were diluted with 2v each of milli Q water and chloroform and the phases separated by centrifugation at 3,500 g for 4 minutes. The lower chloroform phase was recovered, neutralised by dropwise addition of 0.2 N methanolic NH4OH and evaporated down in a stream of N2. The samples were stored at −80° C. until required.
Aminopropyl phase (250 mg) was packed into 16 ml teflon columns with teflon frits placed at the top and bottom of the bonded phase. Columns were placed in a Vac Elut apparatus and washed twice with 2 ml portions of hexane (Prasad et al., 1988, J Chromato 428: 221-228; Kaluzny et al., 1985, J Lipid Res 26: 135-140). The dry lipid samples were taken up in two 0.150 ml portions of chloroform and applied to the column under atmospheric pressure. After adsorption the neutral lipids were eluted with 4 ml of chloroform-2-propanol (2:1, v/v) and the free fatty acids eluted with 4 ml of 2% acetic acid in diethyl ether. The solvent containing the free fatty acids was dried under a stream of N2.
Gas-liquid chromatographic analysis. Dry free fatty acid residues were processed for derivatisation of methyl esters by the boron trifluoride-methanol method (Prasad, supra). 1 ml of boron trifluoride in methanol (BF3) was added to each sample, the sample vials were heated at 70° C. for 5 minutes, shaken vigorously, and baked for a further 10 minutes. Once the samples reached room temperature 0.5 ml milli Q water was added, the sample vials shaken, 0.1 ml heptane was added and the sample shaken again. 0.05 ml of the top heptane layer was removed for GLC analysis. […]

soleus muscle [2] = test: Incorporation of D[14C(U)]glucose into glycogen in isolated incubated soleus muscle; type: cell-based, rat; conditions: for rate of D[14C(U)]glucose incorporation into glycogen: 10 nM peptide, 2 h; for EC50: isolated rat soleus muscle
Protocol: Soleus muscle preparation. All experiments were performed according to protocols approved by the Institutional Animal Ethics Committee. 5-6 week-old male Wistar rats (160 g) were kept on a 12:12-h light/dark cycle, and fed and watered ad libitum. Animals were anaesthetised with 50 mg/kg Nembutal (pentobarbitone sodium), then sacrificed by cervical dislocation. Soleus muscles were dissected under oxygenated KHB (118 mM NaCl, 4.75 mM KCl, 1.2 mM MgSO4, 24.8 mM NaHCO3, 1.2 mM KH2PO4, 2.54 mM CaCl2, 10 mM glucose, pH 7.4) and teased into halves, then incubated as described below.
Measurement of glycogen metabolism in isolated, incubated soleus muscle. […]. Glycogen was precipitated overnight at −20° C. with 96% ethanol (1.2 ml), followed by centrifugation at 8,000 g (15 min, 4° C.). Pellets were washed twice with the same amount of ethanol then dissolved in water (0.6 ml). Aliquots (0.3 ml) were analyzed for D[^14C(U)] glucose content by liquid scintillation spectrometry.
Data analysis. One way ANOVA, Dunnett's Multiple Comparisons Test, and unpaired Student's t-tests were used to calculate the statistical significance of differences, as appropriate. Dose-response curves were fitted to a sigmoidal dose-response algorithm, as follows: Y=minimum+(maximum−minimum)/([…] log ^(EC50^−X), for 2-DOG-uptake; and by a four parameter logistic model, Y=minimum+(maximum−minimum)/(1+10 log ^(EC50^−X)Hill-Coefficient) for total glycogen and [^14C]glucose incorporation. Calculations were performed using Prism v2.0 (GraphPad Software, San Diego, Calif.) to derive values for half-maximal effective concentration (EC50). Displacement curves derived for competition of bound radioligand with cold ligand in transfected cells were calculated according to a one site competition fit using Prism v2.0.

Compound | Total free fatty acids (soleus muscle [1]) | free fatty acid C14:0 as percentage of total resting fatty acid (soleus muscle [1]) | free fatty acid C15:0 as percentage of total resting fatty acid (soleus muscle [1]) | free fatty acid C16:0 as percentage of total resting fatty acid (soleus muscle [1]) | free fatty acid C16:1 (n-7) as percentage of total resting fatty acid (soleus muscle [1]) | free fatty acid C16:1 (n-9) as percentage of total resting fatty acid (soleus muscle [1]) | free fatty acid C17:0 as percentage of total resting fatty acid (soleus muscle [1]) | free fatty acid C18:0 as percentage of total resting fatty acid (soleus muscle [1]) | free fatty acid C18:1 (n-7) as percentage of total resting fatty acid (soleus muscle [1]) | free fatty acid C18:1 (n-9) as percentage of total resting fatty acid (soleus muscle [1]) | free fatty acid C18:2 as percentage of total resting fatty acid (soleus muscle [1]) | free fatty acid C18:3 as percentage of total resting fatty acid (soleus muscle [1]) | free fatty acid C20:0 as percentage of total resting fatty acid (soleus muscle [1]) | free fatty acid C20:4 as percentage of total resting fatty acid (soleus muscle [1]) | free fatty acid C20:5 as percentage of total resting fatty acid (soleus muscle [1]) | free fatty acid C22:4 as percentage of total resting fatty acid (soleus muscle [1]) | free fatty acid C22:6 as percentage of total resting fatty acid (soleus muscle [1]) | free fatty acid adrenic C22:4 (soleus muscle [1]) | free fatty acid arachidic C20:0 (soleus muscle [1]) | free fatty acid arachidonic C20:4 (soleus muscle [1]) | other results
NC[C@H](O)c1ccc(O)c(O)c1 [Norepinephrine, norepinephrine] | 0.527 ± 0.03 nmol/g wwt | 3.1% | 10.9% | 2.2% | 14.3% | 6.0% | 7.2% | 2.4% | 1.2% | 1.4% | 0.8% | 2.5% | 2.0% | 0.9% | 0.4% | 7.5% | 2.5% | 0.007 ± 0.001 nmol/g wwt | 0.003 ± 0.001 nmol/g wwt | 0.015 ± 0.0007 nmol/g wwt | free fatty acid cervonic C22:6 (soleus muscle [1]): 0.022 ± 0.0015 nmol/g wwt; free fatty acid linoleic C18:2 (soleus muscle [1]): 0.043 ± 0.003 nmol/g wwt; free fatty acid linolenic C18:3 (soleus muscle [1]): 0.007 ± 0.0025 nmol/g wwt; free fatty acid margaric C17:0 (soleus muscle [1]): 0.01 ± 0.0007 nmol/g wwt; free fatty acid myristic C14:0 (soleus muscle [1]): 0.023 ± 0.001 nmol/g wwt; free fatty acid oleic C18:1 (soleus muscle [1]): 0.07 ± 0.0056 nmol/g wwt; free fatty acid palmitic C16:0 (soleus muscle [1]): 0.175 ± 0.011 nmol/g wwt; free fatty acid palmitoleic (n-7) C16:1 (soleus muscle [1]): 0.015 ± 0.002 nmol/g wwt; free fatty acid palmitoleic (n-9) C16:1 (soleus muscle [1]): 0.007 ± 0.0007 nmol/g wwt; free fatty acid pentadecanoic C15:0 (soleus muscle [1]): 0.01 ± 0.0012 nmol/g wwt; free fatty acid stearic C18:0 (soleus muscle [1]): 0.1 ± 0.006 nmol/g wwt; free fatty acid timnodonic C20:5 (soleus muscle [1]): 0.002 ± 0.0005 nmol/g wwt; free fatty acid vaccenic C18:1 (soleus muscle [1]): 0.015 ± 0.0008 nmol/g wwt; free fatty acid arachidonic C20:4 (soleus muscle [1]; listed as norepinephrine): 0.015±0.0007 nmol/g wwt; free fatty acid cervonic C22:6 (soleus muscle [1]; listed as norepinephrine): 0.022±0.0015 nmol/g wwt; free fatty acid palmitoleic (n-9) C16:1 (soleus muscle [1]; listed as norepinephrine): 0.007±0.0007 nmol/g wwt
rat CGRP-1 | 0.691 ± 0.04 nmol/g wwt | 3.6% | 12.9% | 2.9% | 21.6% | 7.5% | 10.7% | 3.6% | 1.4% | 1.8% | 1.0% | 2.1% | 3.6% | 1.1% | 1.0% | 8.1% | 2.7% | 0.007 ± 0.002 nmol/g wwt | 0.007 ± 0.0008 nmol/g wwt | 0.018±0.002 nmol/g wwt | rate of D[14C(U)]glucose incorporation into glycogen (soleus muscle [2]; absence of insulin, control 4.8±0.3): 2.8±0.3 μmol/g dry-wt muscle/h; rate of D[14C(U)]glucose incorporation into glycogen (soleus muscle [2]; maximal insulin, control 27.6±1.4): 13.7±0.7 μmol/g dry-wt muscle/h; EC50 (soleus muscle [2]; absence of insulin): 3.1 nM; EC50 (soleus muscle [2]; human insulin 23.7 nM): 0.7 nM; free fatty acid cervonic C22:6 (soleus muscle [1]): 0.022±0.002 nmol/g wwt; free fatty acid linoleic C18:2 (soleus muscle [1]): 0.057 ± 0.006 nmol/g wwt; free fatty acid linolenic C18:3 (soleus muscle [1]): 0.005 ± 0.0013 nmol/g wwt; free fatty acid margaric C17:0 (soleus muscle [1]): 0.015 ± 0.0015 nmol/g wwt; free fatty acid myristic C14:0 (soleus muscle [1]): 0.028 ± 0.001 nmol/g wwt; free fatty acid oleic C18:1 (soleus muscle [1]): 0.09 ± 0.0075 nmol/g wwt; free fatty acid palmitic C16:0 (soleus muscle [1]): 0.23 ± 0.01 nmol/g wwt; free fatty acid palmitoleic (n-7) C16:1 (soleus muscle [1]): 0.022 ± 0.002 nmol/g wwt; free fatty acid palmitoleic (n-9) C16:1 (soleus muscle [1]): 0.008±0.0006 nmol/g wwt; free fatty acid pentadecanoic C15:0 (soleus muscle [1]): 0.01 ± 001 nmol/g wwt; free fatty acid stearic C18:0 (soleus muscle [1]): 0.15 ± 0.01 nmol/g wwt; free fatty acid timnodonic C20:5 (soleus muscle [1]): 0.003 ± 0.0005 nmol/g wwt; free fatty acid vaccenic C18:1 (soleus muscle [1]): 0.017 ± 0.0015 nmol/g wwt
